# Measurements reported in patent publication US10150793B2, “Antagonists of CB1 receptor” (INSERM (Institut National de la Santé et de la Recherche …, priority 2011, dated 2018).
# Tested on: CHO cells
# Assay: Study of metabolism in vitro in CHO cells, steroids in culture medium by GC/MS
# Conditions: CHO cells
# Description: Plasma, brain and culture medium levels of pregnenolone (5-Pregnen-3β-ol-20-one), allopregnanolone (3α-hydroxy-5α-pregnan-20-one), epiallopregnanolone (3β-hydroxy-5α-pregnan-ol-20-one), testosterone, and 5α dihydrotestosterone were determined by GC/MS according to the of estraction, purification and quantification protocol described previously (George O, et al., Biol Psychiatry. 2010 68: 956-63, Vallee M, et al., Anal Biochem. 2000, 287:153-66).
# The CHO-K1 cell line (#CCL-61, ATCC-LGC, USA) derived as a subclone from the parental CHO cell line initiated from a biopsy of an adult Chinese hamster ovary was used. The CHO-K1 cells were seeded on 24-well plates (#353047, BD Biosciences, USA) to the appropriate concentration (25×10^4 cells/well) in fresh, antibiotic-free medium constituted by 90% DMEM-Glutamax; (#31966-21, Life technologies, USA) and 10% Fetal Bovine Serum (#10270-106, Life technologies, USA).
# In this example the inventors further analyzed the metabolism of pregnenolone derivatives using an in vitro test in CHO cells. These cells derived from the ovary have all the enzymes needed to metabolize pregnenolone in down stream steroids.
row,Compound,metabolism in downstream active steroids (Reduced metabolism / Metabolized)
1,"CCC1=CC[C@H]2[C@@H]3CC=C4C[C@@H](O)CC[C@]4(C)[C@H]3CC[C@]12C [Compound 6, 5,16-Pregnadien-3β-ol]",Metabolized
2,"CC(=O)C1=CCC2C3CC=C4C[C@@H](O)CC[C@]4(C)C3CC[C@]12C (stereo partly drawn) [Compound 7, 5,16-Pregnadien-3β-ol-20-one]",Metabolized
3,"C[C@@H](O)[C@H]1CCC2C3CC[C@H]4C[C@@H](O)CC[C@]4(C)C3CC[C@@]21C (stereo partly drawn) [Compound 8, 5α-Pregnan-3β,20α-diol]",Metabolized
4,"CC(=O)C1CCC2C3CC[C@H]4C[C@@H](OC(=O)CCC(=O)O)CC[C@]4(C)C3CC[C@]12C (stereo partly drawn) [Compound 10, 5α-Pregnan-3α-ol-20-one hemisuccinate (Allopregnanolone hemisuccinate)]",Metabolized
5,"CC(=O)[C@H]1CCC2C3CC[C@H]4C[C@@H](O)CC[C@]4(C)C3CC[C@@]21C (stereo partly drawn) [Compound 11, 5α-Pregnan-3β-ol-20-one (Epiallopregnanolone)]",Metabolized
6,"C[C@@H](O)[C@H]1CCC2C3CCC4=C[C@@H](O)CC[C@]4(C)C3CC[C@@]21C (stereo partly drawn) [Compound 13, 4-Pregnen-3β,20β-diol]",Metabolized
7,"C[C@@H](O)[C@@]1(O)CCC2C3CCC4=CC(=O)CC[C@]4(C)C3CC[C@@]21C (stereo partly drawn) [Compound 15, 4-Pregnen-17α,20β-diol-3-one]",Metabolized
8,"CC(=O)[C@H]1CCC2C3CCC4=C[C@@H](O)CC[C@]4(C)C3CC[C@@]21C (stereo partly drawn) [Compound 17, 4-Pregnen-3β-ol-20-one]",Metabolized
9,"C[C@@H](O)[C@H]1CCC2C3CCC4=CC(=O)CC[C@]4(C)C3CC[C@@]21C (stereo partly drawn) [Compound 19, 4-Pregnen-20β-ol-3-one]",Metabolized
10,"C[C@@H](O)[C@H]1CCC2C3CC=C4C[C@@H](O)CC[C@]4(C)C3CC[C@@]21C (stereo partly drawn) [Compound 21, 5-Pregnen-3β,20β-diol]",Metabolized
11,"CC(=O)[C@]1(O)CCC2C3CC=C4C[C@@H](O)CC[C@]4(C)C3CC[C@@]21C (stereo partly drawn) [Compound 22, 17α-Hydroxypregnenolone]",Metabolized
12,"CC(=O)[C@]1(O)CCC2C3CC=C4C[C@@H](OC(=O)CCC(=O)O)CC[C@]4(C)C3CC[C@@]21C (stereo partly drawn) [Compound 23, 17α-Hydroxypregnenolone hemisuccinate]",Metabolized
13,"C[C@]12CC[C@H](O)CC1=CCC1C2CC[C@@]2(C)C1CC[C@@H]2C(=O)CO (stereo partly drawn) [Compound 26, 5-Pregnen-3β,21-diol-20-one]",Metabolized
14,"CO[C@H]1CC[C@@]2(C)C(=CCC3C2CC[C@@]2(C)C3CC[C@@H]2C(C)=O)C1 (stereo partly drawn) [Compound 33, 3β-Methoxypregnenolone]",Metabolized
15,"CCO[C@H]1CC[C@@]2(C)C(=CCC3C2CC[C@@]2(C)C3CC[C@@H]2C(C)=O)C1 (stereo partly drawn) [Compound 34, 3β-Ethoxypregnenolone]",Metabolized
16,"CC(=O)[C@H]1CCC2C3CC=C4CCCC[C@]4(C)C3CC[C@@]21C (stereo partly drawn) [Compound 37, 3-Dehydroxypregnenolone]",Metabolized
17,"CC(O)C1=CC[C@H]2[C@@H]3CC=C4C[C@@H](O)CC[C@]4(C)[C@H]3CC[C@]12C (stereo partly drawn) [Compound 38, 5,16-Pregnadien-3β,20-diol]",Metabolized
18,"CC(=O)[C@@]1(C)CCC2C3CC=C4C[C@@H](OCc5ccccc5)CC[C@]4(C)C3CC[C@@]21C (stereo partly drawn) [Compound 42, 3β-Benzyloxy-17α-methylpregnenolone]",Reduced metabolism
19,"C[C@]12CC[C@H](O)CC1=CCC1C2CC[C@]2(C)C(=O)CCC12 (stereo partly drawn) [Compound 50, 5-Androsten-3β-ol-17-one (DHEA), reference compound]",Metabolized
20,"C[C@]12CC[C@H]3[C@@H](CCC4=CC(=O)CC[C@@]43C)[C@@H]1CC[C@@H]2C(=O)CO [Compound 52, 4-Pregnen-21-ol-3,20-dione]",Metabolized
21,"CC(=O)[C@H]1CC[C@H]2[C@@H]3CC=C4C[C@@H](OS(=O)(=O)[O-])CC[C@]4(C)[C@H]3CC[C@]12C.[Na+] [Compound 53, Pregnenolone sulfate sodium]",Metabolized
22,"CC(=O)O[C@H]1CC[C@@]2(C)C(=CCC3C2CC[C@@]2(C)C3CC[C@@H]2C(C)=O)C1 (stereo partly drawn) [Compound 55, 3β-Acetoxypregnenolone]",Metabolized
23,"CC(=O)[C@@]1(Cc2ccccc2)CCC2C3CC=C4C[C@@H](OCc5ccccc5)CC[C@]4(C)C3CC[C@@]21C (stereo partly drawn) [Compound 63, 17α-Benzyl-3β-benzyloxypregnenolone]",Reduced metabolism
24,"C=CC[C@]1(C(C)=O)CCC2C3CC=C4C[C@@H](O)CC[C@]4(C)C3CC[C@@]21C (stereo partly drawn) [Compound 64, 17α-Allylpregnenolone]",Metabolized
25,"CC(=O)C1CCC2C3CC=C4C[C@@H](N)CC[C@]4(C)C3CC[C@]12C (stereo partly drawn) [Compound 66, 3β-Aminopregnenolone]",Metabolized
26,"CCOC1(C(C)=O)CCC2C3CC=C4C[C@@H](O)CC[C@]4(C)C3CC[C@@]21C (stereo partly drawn) [Compound 71, 17-Ethoxypregnenolone]",Metabolized
27,"CC(=O)[C@@]1(Cc2ccccc2)CCC2C3CCC4=CC(=O)CC[C@]4(C)C3CC[C@@]21C (stereo partly drawn) [Compound 73, 17α-Benzylprogesterone]",Reduced metabolism
28,"CC(=O)[C@@]1(Cc2ccccc2)CCC2C3CC=C4C[C@@H](F)CC[C@]4(C)C3CC[C@@]21C (stereo partly drawn) [Compound 74, 17α-Benzyl-3β-fluoropregnenolone]",Reduced metabolism
29,"C[C@]12CCC3C(CC[C@@H]4C[C@@H](O)CC[C@]34C)C1CC[C@@H]2C(=O)CO (stereo partly drawn) [Compound 75, 5α-Pregnan-3α,21-diol-20-one]",Metabolized
30,"C[C@]12CCC3C(CC[C@H]4C[C@@H](O)CC[C@]34C)C1CC[C@@H]2C(=O)CO (stereo partly drawn) [Compound 76, 5α-Pregnan 3β,21-diol-20-one]",Metabolized
